# Experimental data: US9877961B2, “Anticoagulant reversal agents” (PEROSPHERE INC., priority 2011, dated 2018)
# “Also recorded” adds a separate entry of the source.
# Tests used:
# [1] = DLS association of DAP with apixaban; type: binding
# Experimental: Rivaroxaban (XARELTO®) alone, DAP alone, and DAP:rivaroxaban combinations at mass ratios of 1:1 and 10:1 were added into an aqueous solution and analyzed by dynamic light scattering (DLS) to assess association of the DAP and rivaroxaban. A similar experiment was conducted on apixaban (ELIQUIS®) alone, DAP alone, and DAP:apixaban combinations at mass ratios of 1:1, 10:1 and 100:1. Fondaparinux (ARIXTRA®) alone, DAP alone, and fondaparinux:DAP combinations at mass ratios of 1:1, 10:1 and 100:1 were similarly tested. LMWH (bemiparin; HIBOR®), alone, DAP alone, and LMWH:DAP combinations at mass ratios of 1:1, 10:1, and 100:1 were also tested. The concentration of LMWH tested was 0.1 mg/ml. Therefore, at 1:1, 0.1 mg/ml DAP was tested, at 10:1, 1 mg/ml was tested, and at 100:1, 10 mg/ml DAP was tested.
# [2] = tested on: rivaroxaban-induced anticoagulation; assay: DAP reversal of rivaroxaban in freshly drawn human blood ex vivo, aPTT; type: biochemical; conditions: 0.25 μg/ml rivaroxaban, 50 μg/ml DAP
# Experimental: Human blood was drawn from a volunteer. Rivaroxaban at 0.25 μg/ml was added alone or in combination with 50 μg/ml DAP. Controls contained 50 μg/ml DAP or saline. aPTT was measured within 2 minutes of blood collection.
# [3] = tested on: fondaparinux anticoagulation; assay: DAP reversal of fondaparinux (ARIXTRA®) anticoagulation in vivo, chromogenic Factor Xa assay; design: species or system rat
# Experimental: (§1) The anti-factor Xa assay directly measures anti-factor Xa activity. The methodology behind an anti-factor Xa assay is that patient plasma is added to a known amount of excess factor Xa and excess antithrombin. If a factor Xa inhibitor is present in the patient plasma, it will reduce the enzymatic activity of factor Xa. The amount of residual factor Xa is inversely proportional to the amount of anti-Xa agent in the plasma. The amount of residual factor Xa is detected by adding a chromogenic substrate that mimics the natural substrate of factor Xa, making residual factor Xa cleave it, releasing a colored compound that can be detected by a spectrophotometer. […] Results are given in anticoagulant concentration in units/mL of antifactor Xa, such that high values indicate high levels of anticoagulation and low values indicate low levels of anticoagulation.
# 5 mg/kg fondaparinux was administered subcutaneously to rats. 200 mg/kg DAP was administered intravenously after 2 hours. Activity was measured by chromogenic 510 k cleared Factor Xa Assay (Biophen) at 10, 20, 30 and 60 minutes after DAP administration.
# apixaban anticoagulation = assay: DAP reversal of apixaban in human plasma ex vivo, Biophen anti-Factor Xa chromogenic assay; type: biochemical
# Experimental: as §1
# 218 μg/L or 459 μg/L of rivaroxaban was added to human plasma, with or without 1,250 μg/L or 6,250 μg/L of DAP, respectively. […] DAP effect on anticoagulation was measured by 510 k cleared Biophen anti-Factor Xa chromogenic assay. Rivaroxaban concentrations were determined by comparison with plasma calibration standards, while apixaban concentrations were inferred from stock solution dilutions as calibration standards are not yet available.
# [4] = tested on: edoxaban (LIXIANA®) anticoagulation; assay: Rat tail transection bleeding assay, edoxaban; type: in vivo
# Experimental: Rat tail bleeding assay or rat tail transection assay is an assay that measures blood loss, e.g., blood loss after drug administration. In one embodiment, where the effect of the compound of the invention (e.g., DAP) is being tested, at the Tmax of the anticoagulant, DAP is administered intravenously. After 20 minutes, rat tails are transected approximately 1 mm from the tip, placed in room temperature saline, and blood is collected for 30 minutes and weighed.
# Three rats each were administered 2 mg of rivaroxaban. One rat received a sham reversal containing no DAP, the second received 2.5 mg of DAP, and the third received 12.5 mg DAP. A fourth fat received sham anticoagulant and reversal doses (“sham”). 20 minutes after the reversal dose, tails were transected 1 mm from the tip, placed in room temperature saline, and blood loss was collected for 30 minutes and then weighed.
# Same procedures were used with 1.25 mg apixaban (ELIQUIS®) alone or in combination with 5 or 12.5 mg DAP; with 15.5 mg dabigatran etexilate (PRADAXA®) alone or in combination with 5 or 12.5 mg DAP; […]
structure (smiles),measurement,setting,value
"N=C(N)NCCC[C@H](N)C(=O)NCCCN1CCN(CCCNC(=O)[C@@H](N)CCCNC(=N)N)CC1 (stereo in doubt) [DAP, 2-Amino-5-guanidino-pentanoic acid (3-{4-[3-(2-amino-5-guanidino-pentanoylamino)-propyl]-piperazin-1-yl}-propyl)-amide]",binding by DLS,[1],directly bound
same,"effect on rivaroxaban-induced anticoagulation, aPTT",[2],reversal of rivaroxaban-induced anticoagulation
same,time to reversal of fondaparinux anticoagulation,"[3]; 5 mg/kg fondaparinux s.c., 200 mg/kg DAP i.v. after 2 hours",≤ 10 min
same,reversal of subcutaneous fondaparinux in vivo,"[3]; rats, Xa activity",reversed
same,effective anticoagulant concentration after DAP,"apixaban anticoagulation; 156 μg/L apixaban with 1,156 μg/L DAP, 313 μg/L apixaban with 3,125 μg/L DAP",below the minimum effective concentration
same,dose dependence of apixaban reversal,apixaban anticoagulation; human blood ex vivo,dose-dependent reversal
same,blood loss (blood collected over 30 minutes),"[4]; 1.25 mg edoxaban and 12.5 mg DAP, p<0.05 vs edoxaban only",reduced blood loss to sham dose levels
same,"reversal of edoxaban, blood loss vs anticoagulant only","[4]; rat tail transection, 30 minutes",reversed; also recorded: statistically significant reduction in blood loss
